Converted amounts (≈) assume the structure as drawn.
How the values were obtained:
[1] = test system: Bacillus subtilis ATCC 6633; assay: minimal inhibitory concentration, in vitro antibacterial activity; type: cell-based; details: ATCC6633, 37° C., 20 hours
Protocol: (§1) The in vitro antibacterial activities of typical examples of the present compounds [I] were evaluated in terms of the minimal inhibitory concentration defined as the lowest concentration of the compound preventing the bacterial growth. The Gram-positive bacteria used as test microorganisms included Bacillus subtilis, Staphylococcus aureus and Streptococcus faecalis, and the Gram-negative bacteria used as test microorganisms included Escherichia coli, Enterobacter cloacae, Klebsiella pneumoniae, Proteus vulgaris, Pseudomonas aeruginosa, Serratia marcescens and Salmonella enteritidis. The minimal inhibitory concentration (cultured at 37° C. for 20 hours) was determined according to the standard method prescribed by the Japan Society of Chemotherapy (CHEMOTHERAPY, Vol. 29, No. 1, p. 76, 1981). The following compounds were used as typical examples of the present compounds [I]. At the end of the chemical name of each compound, its tentative designation is given in Parentheses.
(§2) For purposes of comparison, the in vitro antibacterial activities of ofloxacin, OPC-7241 and compound α were evaluated according to the same method as described above and the test results thus obtained are also shown in Table 1.

[2] = test system: Enterobacter cloacae 963; assay: as above; type: cell-based; details: 37° C., 20 hours
Protocol: as §1, §2

[3] = test system: Escherichia coli CI-304; assay: as above; type: cell-based; details: CI304, 37° C., 20 hours
Protocol: as §1, §2

[4] = test system: Escherichia coli NIHJ JC-2; assay: as above; type: cell-based; details: NIHJJC2, 37° C., 20 hours
Protocol: as §1, §2

[5] = test system: Klebsiella pneumoniae PCI 602; assay: as above; type: cell-based; details: PCI602, 37° C., 20 hours
Protocol: as §1, §2

[6] = test system: Proteus vulgaris ATCC 13315; assay: as above; type: cell-based; details: ATCC13315, 37° C., 20 hours
Protocol: as §1, §2

[7] = test system: Pseudomonas aeruginosa NCTC 10490; assay: as above; type: cell-based; details: NCTC10490, 37° C., 20 hours
Protocol: as §1, §2

[8] = test system: Salmonella enteritidis G14; assay: as above; type: cell-based; details: Salmonella enterica, 37° C., 20 hours
Protocol: as §1, §2

[9] = test system: Serratia marcescens IAM 1184; assay: as above; type: cell-based; details: IAM1184, 37° C., 20 hours
Protocol: as §1, §2

[10] = test system: Staphylococcus aureus FDA 209P JC-1; assay: as above; type: cell-based; details: FDA209P, 37° C., 20 hours
Protocol: as §1, §2

[11] = test system: Streptococcus faecalis AHU 1085; assay: as above; type: cell-based; details: Enterococcus faecalis, AHU1085, 37° C., 20 hours
Protocol: as §1, §2

[12] = enteral absorbability, serum concentration after oral administration to mice; type: in vivo; details: mouse, 50 mg/kg orally, fasted male ICR mice; for concentration at 0.5 h: 30 min.
Protocol: Using male ICR mice fasted overnight (weighing 20±1 g), the enteral absorbability of some typical examples of the present compounds [I] was tested. This test was carried out by administering 50 mg/kg of each test compound orally to mice and determining its serum concentration 30 minutes, 1 hour, 2 hours and 4 hours after administration. Five mice were used for each test point. At each test point, whole blood was collected from the mice by cardiac puncture and used to prepare serum samples. Concentrations of the test compounds in serum samples were determined by the paper disc method using Escherichia coli CI-304 as the test microorganism.
For purposes of comparison, the enteral absorbability of ofloxacin and OPC-7241 was tested in the same manner as described above and the results thus obtained are also shown in Table 2.

[13] = test system: Escherichia coli CI-304; assay: therapeutic effect on experimentally induced infection in mice; type: in vivo, Escherichia coli CI-304 in male ddY strain mice; details: CI304, po, 168 h, orally, one hour after inoculation, survival after 7 days
Protocol: Using male ddY strain mice infected with Escherichia coli CI-304 (in groups of five; weighing 20±1 g), the therapeutic effect of some typical examples of the present compounds [I] was tested. The therapeutic effect was evaluated by administering each test compound orally to infected mice and calculating ED50 from the number of mice surviving after the lapse of 7 days. Infected mice were prepared by suspending cells of the aforesaid Escherichia coli strain in a 5% mucin solution and injecting this suspension into the peritoneal cavity of mice. The dose of the bacterial cells was ten times the minimal lethal dose which had previously been determined by a preliminary test. One hour after inoculation of the bacterial cells, each test compound was administered orally to the mice.
For purposes of comparison, ofloxacin and OPC-7241 were tested in the same manner as described above and the results thus obtained are also shown in Table 3.

| SMILES | MIC [1] [µg/mL] | MIC [2] [µg/mL] | MIC [3] [µg/mL] | MIC [4] [µg/mL] | MIC [5] [µg/mL] | MIC [6] [µg/mL] | MIC [7] [µg/mL] | MIC [8] [µg/mL] | MIC [9] [µg/mL] | MIC [10] [µg/mL] | MIC [11] [µg/mL] | concentration at 0.5 h [12] [ng/mL] | concentration at 1 h [12] [ng/mL] | concentration at 2 h [12] [ng/mL] | concentration at 4 h [12] [ng/mL] | ED50 [13] [mg/kg] |
| --- | --- | --- | --- | --- | --- | --- | --- | --- | --- | --- | --- | --- | --- | --- | --- | --- |
| CCN1CCN(c2c(Cl)cc3c(=O)c(C(=O)O)cn4c3c2C(=O)CC4C)CC1 (stereo not drawn) [Compound 9, 9-Chloro-5-methyl-8-(4-ethyl-1-piperazinyl) -6,7-dihydro-1,7-dioxo-1H, 5H-benzo[ij]quinolizine-2-carboxylic acid] | 0.2 (≈ 0.495 µM) | 0.2 (≈ 0.495 µM) | 0.1 (≈ 0.248 µM) | 0.2 (≈ 0.495 µM) | 0.1 (≈ 0.248 µM) | 0.2 (≈ 0.495 µM) | 0.78 (≈ 1.93 µM) | 0.78 (≈ 1.93 µM) | 3.13 (≈ 7.75 µM) | 0.39 (≈ 0.966 µM) | 1.56 (≈ 3.86 µM) | 20200 | 15900 | 7700 | 4500 |  |
| CC1CN(c2c(F)cc3c(=O)c(C(=O)O)cn4c3c2C(=O)CC4C)CCN1 (stereo not drawn) [Compound 16, 9-fluoro-5-methyl-8-(3-methyl-1-piperazinyl)-6,7-dihydro-1,7-dioxo-1H, 5H-benzo[ij]quinolizine-2-carboxylic acid] | 0.2 (≈ 0.536 µM) | 0.2 (≈ 0.536 µM) | 0.1 (≈ 0.268 µM) | 0.2 (≈ 0.536 µM) | 0.1 (≈ 0.268 µM) | 0.2 (≈ 0.536 µM) | 0.78 (≈ 2.09 µM) | 0.78 (≈ 2.09 µM) | 1.56 (≈ 4.18 µM) | 0.2 (≈ 0.536 µM) | 0.78 (≈ 2.09 µM) | 16400 | 13600 | 8100 | 4800 | 0.71 |
| CC1C=Cc2c(N3CCN(C)CC3)c(Cl)cc3c(=O)c(C(=O)O)cn1c23 (stereo not drawn) [Compound 24, 9-Chloro-5-methyl-8-(4-methyl-1-piperazinyl)-1-oxo-1H,5H-benzo[ij]quinolizine-2-carboxylic acid] | 0.2 (≈ 0.535 µM) | 0.2 (≈ 0.535 µM) | 0.2 (≈ 0.535 µM) | 0.39 (≈ 1.04 µM) | 0.1 (≈ 0.267 µM) | 0.1 (≈ 0.267 µM) | 1.56 (≈ 4.17 µM) | 1.56 (≈ 4.17 µM) | 1.56 (≈ 4.17 µM) | 0.2 (≈ 0.535 µM) | 0.78 (≈ 2.09 µM) |  |  |  |  |  |
| CC1CN(c2c(F)cc3c(=O)c(C(=O)O)cn4c3c2C=CC4C)CCN1 (stereo not drawn) [Compound 29, 9-Fluoro-5-methyl-8-(3-methyl-1-piperazinyl) -1-oxo-1H, 5H-benzo[ij]quinolizine-2-carboxylic acid] | 0.2 (≈ 0.56 µM) | 0.2 (≈ 0.56 µM) | 0.1 (≈ 0.28 µM) | 0.1 (≈ 0.28 µM) | 0.1 (≈ 0.28 µM) | 0.1 (≈ 0.28 µM) | 1.56 (≈ 4.37 µM) | 0.78 (≈ 2.18 µM) | 0.78 (≈ 2.18 µM) | 0.2 (≈ 0.56 µM) | 0.78 (≈ 2.18 µM) | 15600 | 14400 | 9800 | 4200 | 0.69 |
| CC1CN(c2c(Cl)cc3c(=O)c(C(=O)O)cn4c3c2C=CC4C)CCN1 (stereo not drawn) [Compound 31, 9-Chloro-5-methyl-8-(3-methyl-1-piperazinyl) -1-oxo-1H, 5H-benzo[ij]quinolizine-2-carboxylic acid] | 0.2 (≈ 0.535 µM) | 0.2 (≈ 0.535 µM) | 0.2 (≈ 0.535 µM) | 0.1 (≈ 0.267 µM) | 0.1 (≈ 0.267 µM) | 0.1 (≈ 0.267 µM) | 1.56 (≈ 4.17 µM) | 1.56 (≈ 4.17 µM) | 1.56 (≈ 4.17 µM) | 0.2 (≈ 0.535 µM) | 0.78 (≈ 2.09 µM) | 13800 | 12700 | 8400 | 5000 |  |
| CC1CN(c2c(F)cc3c(=O)c(C(=O)O)cn4c3c2C(=O)CC4C)CC(C)N1C.Cl.O (stereo not drawn) [Compound 39, 9-Fluoro-5-methyl-8-(3,4,5-trimethyl-1-piperazinyl) -6,7-dihydro-1,7-dioxo-1H, 5H-benzo[ij]quinolizine-2-carboxylic acid hydrochloride monohydrate] | 0.2 | 0.39 | 0.2 | 0.39 | 0.1 | 0.2 | 3.13 | 0.78 | 1.56 | 0.39 | 0.78 |  |  |  |  |  |

The next compounds have a lower MIC [1] than those just listed; values first:

| MIC [1] [µg/mL] | MIC [2] [µg/mL] | MIC [3] [µg/mL] | MIC [4] [µg/mL] | MIC [5] [µg/mL] | MIC [6] [µg/mL] | MIC [7] [µg/mL] | MIC [8] [µg/mL] | MIC [9] [µg/mL] | MIC [10] [µg/mL] | MIC [11] [µg/mL] | concentration at 0.5 h [12] [ng/mL] | concentration at 1 h [12] [ng/mL] | concentration at 2 h [12] [ng/mL] | concentration at 4 h [12] [ng/mL] | SMILES | ED50 [13] [mg/kg] |
| --- | --- | --- | --- | --- | --- | --- | --- | --- | --- | --- | --- | --- | --- | --- | --- | --- |
| 0.1 (≈ 0.268 µM) | 0.2 (≈ 0.536 µM) | 0.1 (≈ 0.268 µM) | 0.2 (≈ 0.536 µM) | 0.1 (≈ 0.268 µM) | 0.2 (≈ 0.536 µM) | 0.78 (≈ 2.09 µM) | 0.78 (≈ 2.09 µM) | 1.56 (≈ 4.18 µM) | 0.39 (≈ 1.04 µM) | 0.78 (≈ 2.09 µM) | 24200 | 22400 | 12600 | 8400 | CC1CC(=O)c2c(N3CCN(C)CC3)c(F)cc3c(=O)c(C(=O)O)cn1c23 (stereo not drawn) [Compound 3, 9-Fluoro-5-methyl-8-(4-methyl-1-piperazinyl)-6,7-dihydro-1,7-dioxo-1H, 5H-benzo[ij]quinolizine-2-carboxylic acid] | 0.52 |
| 0.1 (≈ 0.258 µM) | 0.2 (≈ 0.516 µM) | 0.1 (≈ 0.258 µM) | 0.2 (≈ 0.516 µM) | 0.1 (≈ 0.258 µM) | 0.39 (≈ 1.01 µM) | 1.56 (≈ 4.03 µM) | 0.78 (≈ 2.01 µM) | 3.13 (≈ 8.08 µM) | 0.78 (≈ 2.01 µM) | 3.13 (≈ 8.08 µM) | 20800 | 15800 | 7200 | 5300 | CC1CN(c2c(F)cc3c(=O)c(C(=O)O)cn4c3c2C(=O)CC4C)CC(C)N1 (stereo not drawn) [Compound 11, 9-Fluoro-5-methyl-8-(3,5-dimethyl-1-piperazinyl) -6,7-dihydro-1,7-dioxo-1H, 5H-benzo[ij]quinolizine-2-carboxylic acid] |  |
| 0.1 | 0.2 | 0.1 | 0.2 | 0.1 | 0.2 | 0.78 | 0.78 | 1.56 | 0.39 | 0.78 | 24500 | 22000 | 11800 | 8500 | CC1CC(=O)c2c(N3CCN(C)CC3)c(F)cc3c(=O)c(C(=O)O)cn1c23.Cl.O (stereo not drawn) [Compound 35, 9-Fluoro-5-methyl-8-(4-methyl-1-piperazinyl) -6,7-dihydro-1,7-dioxo-1H, 5H-benzo[ij]quinolizine-2-carboxylic acid hydrochloride monohydrate] |  |
| 0.1 | 0.78 | 0.2 | 0.39 | 0.1 | 0.1 | 0.78 | 0.78 | 1.56 | 0.39 | 1.56 |  |  |  |  | CC1C=Cc2c(N3CCN(C)CC3)c(F)cc3c(=O)c(C(=O)O)cn1c23.Cl (stereo not drawn) [Compound 37, 9-Fluoro-5-methyl-8-(4-methyl-1-piperazinyl) -1-oxo-1H, 5H-benzo[ij]quinolizine-2-carboxylic acid hydrochloride] |  |
| 0.1 | 0.2 | 0.1 | 0.2 | 0.1 | 0.1 | 1.56 | 0.78 | 1.56 | 0.78 | 0.78 | 26700 | 24100 | 13500 | 9000 | CC1CN(c2c(F)cc3c(=O)c(C(=O)O)cn4c3c2C(=O)CC4C)CCN1C.Cl.O (stereo not drawn) [Compound 38, 9-fluoro-5-methyl-8-(3,4-dimethyl-1-piperazinyl)-6,7-dihydro-1,7-dioxo-1H,5H-benzo[ij]quinolizine-2-carboxylic acid hydrochloride monohydrate] |  |
